Reference: patent US9827292B2, “Use of KGF in the treatment of menopausal disorders” (Università degli Studi di Roma “La Sapienza”, priority 2012, dated 2017)

Assay: In vitro release test of Pluronic F127 hydrogel with model molecules
Format: physicochemical
Settings: F127 20% w/v, 60 ml H2O, 37° C., FIG. 6D
Description: 2 mL of loaded hydrogel containing 4 mg of myoglobin or prednisolone in a solution of 20% Pluronic F127 w/v were introduced into a dialysis membrane bag (MWCO 3500 Da), and the dialysis bag sealed at the end was incubated in 60 mL of release medium (distilled water) at 37° C. and was stirred at a rate of 50 rpm. Saturation conditions were avoided by means of frequent substitution of fresh water. At predetermined intervals, aliquots of 0.5 mL of release medium were removed and substituted with an equal volume of fresh solution. The release behaviour in vitro of hydrogel loaded with myoglobin was compared with that of hydrogel loaded with prednisolone. All the assays were conducted in triplicate. Release profiles were expressed in cumulative release percentages over time.
The loaded hydrogels were prepared by solubilising at low temperature, in a 5 ml vial, an exact quantity of model molecule (approximately 4-5 mg) in 2 ml of solution of F127 20% w/v; the solution was then brought to the hydrogel state by placing the hermetically sealed vial at 37° C. The vial, closed at the head with a perforated mesh, was then introduced into the release medium (60 ml bidistilled H2O, T=37° C.) and held under constant and gentle stirring. The release therefore occurred by means of diffusion from the upper surface of the gel to the dissolution medium. […]

Row | Compound | release profile from Pluronic F127 hydrogel, comparison of the two model molecules
1 | C[C@]12C=CC(=O)C=C1CC[C@@H]1[C@@H]2[C@@H](O)C[C@@]2(C)[C@H]1CC[C@]2(O)C(=O)CO [prednisolone] | almost identical for the two different molecules
2 | myoglobin | almost identical for the two different molecules
